Publication PMC9127750, “Structure-based design of CDC42 effector interaction inhibitors for the treatment of cancer” (Cell reports, 2022)

Tested on: WM3248 melanoma cells, 486 antibodies
Assay: Reverse phase protein arrays (RPPA);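 for RPPA ACC1.R.C: ratio of treated to vehicle (0 µM) normalized linear protein signal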;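 for RPPA AMPK.a2 pS345.R.V: ratio of treated to vehicle (0 µM) normalized linear protein signal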;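 for RPPA AMPKa pT172.R.C: ratio of treated to vehicle (0 µM) normalized linear protein signal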;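 for RPPA ASNS.R.V: ratio of treated to vehicle (0 µM) normalized linear protein signal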;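 for RPPA AceCS1.R.V: ratio of treated to vehicle (0 µM) normalized linear protein signal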;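 for RPPA Akt1.R.V: ratio of treated to vehicle (0 µM) normalized linear protein signal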;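 for RPPA Atg5.R.C: ratio of treated to vehicle (0 µM) normalized linear protein signal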;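 for RPPA Bim.R.V: ratio of treated to vehicle (0 µM) normalized linear protein signal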
Format: cell-based, Human
Conditions: 10 uM
From the text: Pellets were snap frozen in liquid nitrogen and shipped to MD Anderson Cancer Center core RPPA facility for RPPA analysis (Table S5). Three biological replicates for each sample were generated.
Nomenclatures on the RPPA heatmaps: name_of_antibody.species_of_antibody.status_of_antibody. V - antibody validated; C - validation of antibody in progress; Q - antibody nonspecific; E – under evaluation; antibodies raised in M - mouse, G - goat, R - rabbit, or T - rat.

## CN(C)c1cccc(Nc2cc(-c3ccccc3)nc(C3CCNCC3)n2)c1 [ARN22089, N1,N1-dimethyl-N3-(6-phenyl-2-(piperidin-4-yl)pyrimidin-4-yl)benzene-1,3-diamine]
Average
  RPPA level MTCO1.M.V: 0.952
  RPPA level Mcl.1.R.V: 0.908
  RPPA level MelanA.R.C: 0.925
  RPPA level Merlin.R.C: 0.993
  RPPA level Midkine.R.V: 1.001
  RPPA level Mitofusin.1.R.V: 0.993
  RPPA level Mitofusin.2.R.V: 0.945
  RPPA level Mnk1.R.V: 0.956
  RPPA level mTOR.R.V: 0.929
  RPPA level mTOR_pS2448.R.C: 0.962
  c.Jun_pS73.R.V RPPA level: 1.013
  c.Kit.R.V RPPA level: 1.031
  c.Met_pY1234_Y1235.R.V RPPA level: 0.982
  c.Myc.R.C RPPA level: 1.334
  cGAS.R.V RPPA level: 1.114
  cdc2_pY15.R.C RPPA level: 0.967
  cdc25C.R.V RPPA level: 0.900
C.1
  RPPA A.Raf.R.V: 0.924
  RPPA A.Raf_pS299.R.C: 1.052
  RPPA ACC1.R.C: 0.932
  RPPA ACC_pS79.R.V: 1.211
  RPPA ACLY_pS455.R.V: 1.216
  RPPA ACVRL1.R.C: 1.064
  RPPA ADAR1.M.V: 1.080
  RPPA ALKBH5.R.V: 1.056
  RPPA AMPK.a2_pS345.R.V: 0.962
  RPPA AMPKa.R.C: 0.981
  RPPA AMPKa_pT172.R.C: 2.354
  RPPA AR.R.V: 0.957
  RPPA ARID1A.R.C: 1.055
  RPPA ASNS.R.V: 0.968
  RPPA ATM.R.V: 0.876
  RPPA ATM_pS1981.R.V: 1.025
  RPPA ATP5A.M.C: 1.084
  RPPA ATP5H.R.V: 1.134
  RPPA ATRX.R.C: 0.823
  RPPA AceCS1.R.V: 1.056
  RPPA Akt1.R.V: 0.796
  RPPA Akt1_pS473.R.V: 0.792
  RPPA Akt2.R.V: 0.881
  RPPA Akt2_pS474.R.C: 0.939
  RPPA Akt.R.V: 0.872
  RPPA Akt_pS473.R.V: 0.917
  RPPA Akt_pT308.R.V: 0.810
  RPPA Ambra1_pS52.R.C: 1.060
  RPPA Annexin.I.M.V: 0.884
  RPPA Annexin.VII.M.V: 1.054
  RPPA Atg3.R.V: 0.850
  RPPA Atg4B.R.C: 0.734
  RPPA Atg5.R.C: 0.909
  RPPA Atg7.R.V: 0.713
  RPPA Aurora.A.R.C: 1.325
  RPPA Aurora.ABC_pT288_pT232_pT198.R.C: 1.697
  RPPA Axl.R.V: 0.673
  RPPA B7.H3.R.C: 0.862
  RPPA B7.H4.R.C: 0.874
  RPPA B.Raf.R.C: 0.709
  RPPA B.Raf_pS445.R.V: 0.874
  RPPA BCL2A1.R.V: 0.885
  RPPA BMK1.Erk5_pT218_Y220.R.V: 1.100
  RPPA BRCA1.M.C: 0.993
  RPPA Bad_pS112.R.V: 1.031
  RPPA Bak.R.C: 1.026
  RPPA Bax.R.V: 0.917
  RPPA Bcl2.R.C: 1.064
  RPPA Bcl.xL.R.V: 0.877
  RPPA BiP.GRP78.M.C: 0.971
  RPPA Bid.R.C: 0.858
  RPPA Bim.R.V: 0.886
  RPPA X4E.BP1.R.V: 1.220
  RPPA X4E.BP1_pS65.R.V: 0.985
  RPPA X4E.BP1_pT37_T46.R.V: 0.975
  RPPA X14.3.3.zeta.R.V: 1.026
  RPPA X53BP1.R.V: 0.922
  RPPA b.Actin.R.C: 0.996
  RPPA b.Catenin_pT41_S45.R.V: 0.984
  RPPA c.Abl.R.V: 1.031
  RPPA c.Abl_pY412.R.C: 0.928
  RPPA c.IAP2.R.C: 1.007
Average of 3
  RPPA PREX1.R.V Average: 0.915
  RPPA PTEN.R.V Average: 0.933
